System: patients with MDD and an inadequate response to an SSRI or SNRI
Experiment: HAMD-17 melancholic symptom subscale score (HAMD-6), MDD study
Type: in vivo, human
Details: for HAMD-17 Melancholic Symptom Subscale Score Change from Baseline to Week 5 Mean (SE) / HAMD-17 Melancholic Symptom Subscale Score Change from Baseline to Week 5 Median: 34 mg QD + SSRI/SNRI
From the text: “Hamilton Depression Scale 6-item (HAMD-6)” is a subscale derived from the 17-item Hamilton Rating Scale for Depression (HAMD-17). HAMD-6 includes the following items: depressed mood, guilt feelings, work and interests, psychomotor retardation, psychic anxiety, and general somatic symptoms (Bech et al. Acta Psychiatr Scand. 1975, 51(3):161-70).
All patients continued on their SSRI or SNRI at a stable dose for the duration of the study.
A higher HAMD-17 melancholic symptom subscale score indicates more severe depression […]. The abbreviations are: CI=confidence interval; LSM=least squares mean; MMRM=mixed-effects model for repeated measures; OC=observed cases; SD=standard deviation; SE=standard error. In Stage 1, Baseline=Study Week 0, Weeks 1-5=Study Weeks 1-5; and in Stage 2, Baseline=Study Week 5, Weeks 1-5=Study Weeks 6-10. LSM is from the stage-specific MMRM analysis with the change from baseline as the outcome; treatment group, visit, treatment-by-visit interaction, baseline melancholic symptom subscale score, and baseline melancholic symptom subscale score-by-visit interaction as the factors. An unstructured covariance matrix is used to model the within-subject errors. The denominator degrees of freedom are estimated using the Kenward-Roger approximation. 2-Sided p-value is for treatment difference from the stage-specific MMRM analysis.

SMILES: CC(C)COc1ccc(CNC(=O)N(Cc2ccc(F)cc2)C2CCN(C)CC2)cc1 [pimavanserin, N-(4-Fluorophenylmethyl)-N-(1-methylpiperidin-4-yl)-N′-(4-(2-methylpropyloxy)phenylmethyl)carbamide]
- HAMD-17 Melancholic Symptom Subscale Score Effect Size (Cohen's d) (Stage 1): 0.558
- HAMD-17 Melancholic Symptom Subscale Score Change from Baseline to Week 5 Mean (SE) (Stage 1): −6.8 (0.62)
- HAMD-17 Melancholic Symptom Subscale Score Change from Baseline to Week 5 Median (Stage 1): −8.0
- HAMD-17 Melancholic Symptom Subscale Score Effect Size (Cohen's d) (Stage 2): −0.304
- HAMD-17 Melancholic Symptom Subscale Score Change from Baseline to Week 5 Mean (SE) (Stage 2): −1.0 (0.46)
- HAMD-17 Melancholic Symptom Subscale Score Change from Baseline to Week 5 Median (Stage 2): −1.0
